# Assay results as given in patent US20260053792A1, “POLYSUBSTITUTED TETRAHYDROISOQUINOLINE COMPOUNDS, METHOD FOR PREPARING SAME, PHARMACEUTICAL COMPOSITION THEREOF, AND USE THEREOF” (SHANGHAI INSTITUTE OF MATERIA MEDICA, CHINESE ACADEMY OF …, priority 2022, published 2026).
# Like-named read-outs stand apart in the source and are kept apart here.
# Assay: Tissue distribution of compound A26 in mice (plasma / cerebrospinal fluid drug concentration)
# Format: in vivo
# Settings: for Kp at 0.25 h / Kp at 0.5 h / concentration at 15 min / concentration at 30 min: mouse; for Kp at 0.25 h / Kp at 0.5 h: brain/plasma, read-out: Brain to plasma drug concentration ratio (Cbrain/Cplasma); for Kp at 0.25 h / concentration at 15 min: 15 min; for Kp at 0.5 h / concentration at 30 min: 30 min
# Description: The drug concentrations in plasma or cerebrospinal fluid at two time points of 15 minutes and 30 minutes under three administration routes: oral (20 mg/kg), intraperitoneal injection (10 mg/kg), and intravenous injection (5 mg/kg) were measured.
# [1] = cerebrospinal fluid, IP 10 mg/kg, read-out: cerebrospinal fluid
# [2] = cerebrospinal fluid, IV 5 mg/kg, read-out: cerebrospinal fluid
# [3] = cerebrospinal fluid, PO 20 mg/kg, read-out: cerebrospinal fluid
# [4] = plasma, IP 10 mg/kg, read-out: Cardiac plasma
# [5] = plasma, IV 5 mg/kg, read-out: Cardiac plasma
# [6] = plasma, PO 20 mg/kg, read-out: Cardiac plasma
smiles,measurement,setting,value
"COc1cc2c(cc1OC)C(CCc1c[nH]c3ccccc13)N(CC1CCOCC1)CC2 (stereo not shown) [Compound A26, 1-(2-(1H-indol-3-yl)ethyl)-6,7-dimethoxy-2-((tetrahydro-2H-pyran-4-yl)methyl)-1,2,3,4-tetrahydroisoquinoline]",blood-brain barrier penetration ability and brain targeting property,conclusion from brain/plasma ratios,good
same,Kp at 0.25 h,IP 10 mg/kg,2.12
same,Kp at 0.5 h,IP 10 mg/kg,1.91
same,Kp at 0.25 h,IV 5 mg/kg,3.3
same,Kp at 0.5 h,IV 5 mg/kg,2.2
same,Kp at 0.25 h,PO 20 mg/kg,3.4
same,Kp at 0.5 h,PO 20 mg/kg,1.6
same,concentration at 15 min,[1],665 ± 49 ng/g
same,concentration at 30 min,[1],355 ± 106 ng/g
same,concentration at 15 min,[2],1560 ± 245 ng/g
same,concentration at 30 min,[2],292 ± 69 ng/g
same,concentration at 15 min,[3],224 ± 363 ng/g
same,concentration at 30 min,[3],32.4 ± 11.9 ng/g
same,concentration at 15 min,[4],313 ± 15 ng/mL
same,concentration at 30 min,[4],186 ± 57 ng/mL
same,concentration at 15 min,[5],466 ± 85 ng/mL
same,concentration at 30 min,[5],135 ± 47 ng/mL
same,concentration at 15 min,[6],65.3 ± 94.7 ng/mL
same,concentration at 30 min,[6],20.7 ± 6.1 ng/mL
